# Test results: US12636249B2, “Concentrated injectable tranexamic acid compositions and methods of use thereof” (Galen Limited, priority 2022, dated 2026)
# Like-named read-outs stand apart in the source and are kept apart here.
# How the values were obtained:
# [1] = cited from earlier work
# fibrinolysis = conditions: in vitro and in vivo pharmacodynamics studies (Picetti et al., 2019); cited from earlier work
# [2] = bleeding trauma patients, cited from earlier work
# [3] = Pharmacokinetics of TXA in swine plasma after IV and IM administration; type: in vivo, domestic pigs; conditions: for Cmax: read-out: Cmax range; for duration of effective plasma concentration (FIG. 13): effective level about 10 to about 15 ug/ml; for time effective TXA levels are maintained (FIG. 13 legend): target about 15 ug/mL
# Description: Studies of pharmacokinetics (PK) and pharmacodynamics (PD) of TXA were performed in swine conducted in compliance with Good Laboratory Practice (GLP) standards. All facilities and activities were accredited in accordance with GLP and ISO9001 (2015).
# Eighteen domestic pigs were assigned to four test groups. Group 1: Control, IM administered with vehicle (0.9% NaCl, pH 3-4, w/v), two animals were administered 2 mL vehicle, one animal administered 4 mL vehicle.
# IM injections were performed using an auto-injector. […] PK analysis was noncompartmental. Following sacrifice, animals were subjected to a full detailed necropsy and histopathological evaluation performed on injection sites and major organs.
# Additional blood samples were collected for Complete Blood Count (CBC), biochemistry profile and prothrombin time/partial thromboplastin time (PT/PTT) at baseline, 1, 3, and 72 hr post dosing. For thromboelastographic (TEG) analysis blood was collected at base line, 1, 3 and 6 hr post dosing. The study was conducted over 5 separate dosing sessions. For each session the animals were acclimatized for at least 4 days prior to Central Venous Catheter (CVCs) placement procedure. All animals were sacrificed 72 hours post treatment and were subjected to a full gross necropsy. Organ samples and injection sites were collected for histopathological analysis.
# Pharmacokinetic and bioanalytical analysis of Tranexamic acid, based on plasma samples, was performed. On the date of analysis, plasma samples were thawed at room temperature, along with calibration and QC samples. 50 μL of plasma were taken for analysis. Tranexamic acid and its internal standard were separated from pig plasma by protein precipitation. The samples were analyzed by a validated high-performance liquid chromatography-mass spectrometry/mass spectrometry (HPLC-MS/MS) method, using Hilic Silica 3 μm column with an electro-spray interface, in a positive ion mode.
# [4] = adult patients with traumatic cardiac arrest, prehospital administration; cited from earlier work
compound,measurement,setting,value
OCc1ccccc1 [benzyl alcohol],cutaneous anesthesia,[1]; intradermal 1 ml 0.9% benzyl alcohol with epinephrine,prolonged cutaneous anesthesia
same,pain on injection,[1]; versus lidocaine with epinephrine,significantly less painful on injection
"NC[C@H]1CC[C@H](C(=O)O)CC1 [TXA, trans-4-(aminomethyl) cyclohexanecarboxylic acid]",TXA concentration in blood or plasma giving substantial inhibition of fibrinolysis,fibrinolysis,10 to 15 µg/mL
same,bioavailability of IM TXA,[2]; 1 gram IM as two 5 ml (0.5 g each) injections,77%
same,tolerability of IM injections,[2]; 1 gram IM as two 5 ml injections,well-tolerated
same,time to therapeutic plasma concentrations,[2]; after IM injection of 1 gram,≤ 15 min
same,AUC(0-inf),"[3]; pig, plasma, im, 1 g, swine Group 3: 1 g TXA IM, n=5, read-out: AUCINF_pred range",81.5 to 90.3 µg·h/mL
same,Tmax,"[3]; pig, plasma, im, 1 g, swine Group 3: 1 g TXA IM, n=5, read-out: Tmax range",15 to 120 min
same,AUC(0-inf),"[3]; pig, plasma, im, 1 g, swine Group 3: 1 g TXA IM, n=5, read-out: mean AUCINF_pred (converted)",84.8 µg·h/mL
same,Tmax,"[3]; pig, plasma, im, 1 g, swine Group 3: 1 g TXA IM, read-out: mean Tmax (converted)",44 min
same,Cmax,"[3]; pig, plasma, im, 1 g",20.1 to 34.8 µg/mL
same,AUC(0-inf),"[3]; pig, plasma, im, 2 g, swine Group 4: 2 g TXA IM, n=5, read-out: AUCINF_pred range",134 to 148 µg·h/mL
same,Tmax,"[3]; pig, plasma, im, 2 g, swine Group 4: 2 g TXA IM, n=5, read-out: Tmax range",30 to 60 min
same,AUC(0-inf),"[3]; pig, plasma, im, 2 g, swine Group 4: 2 g TXA IM, n=5, read-out: mean AUCINF_pred (converted)",141 µg·h/mL
same,Tmax,"[3]; pig, plasma, im, 2 g, swine Group 4: 2 g TXA IM, read-out: mean Tmax (converted)",41.8 min
same,Cmax,"[3]; pig, plasma, im, 2 g",35.7 to 47 µg/mL
same,bioavailability,"[3]; pig, plasma, intramuscular, 1 g",> 100%
same,Tmax,"[3]; pig, plasma, iv, 1 g, swine Group 2: 1 g TXA IV, n=5, read-out: Tmax range",11 to 12 min
same,AUC(0-inf),"[3]; pig, plasma, iv, 1 g, swine Group 2: 1 g TXA IV, n=5, read-out: mean AUCINF_pred (converted)",74 µg·h/mL
same,Tmax,"[3]; pig, plasma, iv, 1 g, swine Group 2: 1 g TXA IV, read-out: mean Tmax (converted)",11.2 min
same,Cmax,"[3]; pig, plasma, iv, 1 g",40.9 to 78.5 µg/mL
same,"mean peak plasma concentration (mean concentration-time curve, FIG. 9)","[3]; swine Group 2, n=5: 1 g TXA IV, 10 mL of 100 mg/mL TRANEX injection pH 6.5-8 over 10 min",64 µg/mL
same,time of mean peak plasma concentration,"[3]; swine Group 2: 1 g TXA IV, time from end of 10 min IV injection",1 min
same,"mean peak plasma concentration (mean concentration-time curve, FIG. 9)","[3]; swine Group 3, n=5: 1 g TXA IM, 2 mL of 500 mg/mL formulation A pH 3-4",24.2 µg/mL
same,time of mean peak plasma concentration,"[3]; swine Group 3: 1 g TXA IM, post dosing",≤ 20 min
same,"mean peak plasma concentration (mean concentration-time curve, FIG. 9)","[3]; swine Group 4, n=5: 2 g TXA IM, 4 mL of 500 mg/mL formulation A pH 3-4",41 µg/mL
same,time of mean peak plasma concentration,"[3]; swine Group 4: 2 g TXA IM, post dosing",≤ 45 min
same,duration of effective plasma concentration (FIG. 13),"[3]; swine, 1 g IM TXA",about 130 minutes
same,duration of effective plasma concentration (FIG. 13),"[3]; swine, 1 g IV TXA",about 80 minutes
same,dose proportionality,"[3]; swine, 1 g versus 2 g IM",exhibits dose proportionality
same,duration of effective plasma concentration (FIG. 13),"[3]; swine, 2 g IM TXA",about 200 minutes
same,time effective TXA levels are maintained (FIG. 13 legend),"[3]; swine, IM administration",> 130 min
same,time effective TXA levels are maintained (FIG. 13 legend),"[3]; swine, IV administration",< 105 min
CNC[C@H](O)c1ccc(O)c(O)c1 [epinephrine],short-term survival,[4],increased short-term survival
